Marks after values point to notes of the source that are not given here.
Columns and labels:
[1] = tested on: parainfluenza virus; assay type: in vivo, Kunming mice; details: 13.0 mg/kg/d i.g. 5 days
[2] = tested on: rabbit fever induced by typhoid and paratyphoid vaccine; assay: Rabbit fever induced by typhoid and paratyphoid vaccine; assay type: in vivo, Japanese big-ear white rabbits; details: 5.2 mg/kg i.g.
Procedure: Male Japanese big-ear white rabbits with a weight 1.5˜2.0 kg were used. Before the test, WSC-411P portable digital thermometer was used to measure the normal rectal temperature twice (with certain interval for each time), and the average value was taken as the normal body temperature of rabbits. […] Each group has 6 rabbits, and the test was repeated 3 times for each group. Rabbits were fixed into a fixator. The blank control group was intravenously injected with normal saline of 1 ml/kg via the ear margin; The model control group and each drug group were intravenously injected with typhoid and paratyphoid vaccines of 0.8 ml/kg via the ear margin. After the body temperatures of the rabbits increased by 1° C. or more (requiring about 1˜1.5 h, and this test was limited to 1 h), the blank control group and the model group were administered intragastrically with 0.5% carboxymethycellulose of 1 ml/kg, and the drug groups were administered intragastrically with phillyrin/phillygeninin compositions and paracetamol respectively. The rectal temperature was measured after administration for 30, 60, 90, 120, 180 and 240 min to observe the changes in the body temperature, and difference between the groups was compared by inter-group t test processing through antipyretic percentage.

[3] = tested on: respiratory syncytial virus (RSV); assay: Impact on virus-induced cytopathic effect in Vero cells (MTT): RSV; assay type: cell-based; details: RSV 100TCID50, Vero, 72 h; drug g/L as Table 1-2
[4] = tested on: rat fever induced by beer yeast; assay: Rat fever induced by beer yeast (Saccharomyces cerevisiae); assay type: in vivo, Wistar rats; details: 10 mg/kg i.g.
Procedure: Male Wistar rats with a weight of 180˜200 g were used. Normal anal temperature of each rat was measured twice (at a certain interval) with a WSC-411P portable digital thermometer, and a mean of the two measurement values was taken as a normal body temperature of the rat. Then, 300 rats with body temperature at 36.5˜38° C. were selected and randomly divided into 30 groups by weight: model groups (0.5% methyl cellulose), phillyrin/phillygeninin compositions A and B that are divided into low, medium and high dose groups (2.5, 5, 10 mg/kg) respectively, phillyrin groups (13 mg/kg), phillygeninin groups (13 mg/kg), and positive drug paracetamol groups (100 mg/kg). Each group has 10 rates, and the test is repeated 3 times for each group. 10 mL/kg of 10% fresh Saccharomyces cerevisiae suspension was subcutaneously injected to the back of the rats of each group to induce fever. After administration of 10% fresh Saccharomyces cerevisiae suspension for 6.0 h, the phillyrin/phillygeninin composition and the paracetamol positive drug were administered by intragastric administration, and the same volume of 0.5% methyl cellulose is administrated to the model group by intragastric administration. Rectal temperatures were respectively measured at 1, 2, 3 and 4 h after the administration. Changes in the body temperature were observed and difference between the groups was compared by inter-group t test processing through antipyretic percentage. The above test was repeated totally 3 times.

[5] = tested on: Coxsackie virus B3 (CVB3); assay: Impact on virus-induced cytopathic effect in Vero cells (MTT): CVB3; assay type: cell-based; details: CVB3 100TCID50, Vero, 72 h; drug g/L as Table 1-2
[6] = tested on: rat paw swelling induced by carrageenin; assay: Rat paw swelling induced by carrageenin; assay type: in vivo, Wistar rats; details: 10.0 mg/kg
Procedure: Each group has 10 rats. Rats in each group were all administered by […] through the sublingual vein. Normal volume of the right hind paw of each rat in each group was measured in capillary magnification measurement method. In order to avoid errors, the measurement should be carried out in a fixed position and operated by the same person before and after administration. A mean of the two measurement values was taken as the normal volume of the right hind paw of a rat before administration. […] The difference between the groups was compared by inter-group t test processing through the difference percentage (swelling ratio) of the paw volume before and after the induced rat inflammation. [formula] Results

[7] = tested on: enterovirus EV71; assay: Impact on virus-induced cytopathic effect in Vero cells (MTT): EV71; assay type: cell-based; details: EV71 100TCID50, Vero, 72 h; drug g/L as Table 1-2
[8] = tested on: Herpes zoster simplex viruses type I (HSV-I); assay: Impact on virus-induced cytopathic effect in Vero cells (MTT): HSV-I; assay type: cell-based; details: HSV-I 100TCID50, Vero, 72 h; drug g/L as Table 1-2
[9] = 15 min after inflammation induction
[10] = 30 min after inflammation induction
[11] = 60 min after inflammation induction
[12] = 120 min after inflammation induction
[13] = 180 min after inflammation induction
[14] = 240 min after inflammation induction
[15] = 300 min after inflammation induction
[16] = 360 min after inflammation induction

Row | Compound | Lung index [1] | Lung index inhibition rate [1] | Body temperature ([2]; 30 min after administration) | antipyretic percentage (%) ([2]; 30 min after administration) | Body temperature ([2]; 60 min after administration) | antipyretic percentage (%) ([2]; 60 min after administration) | Body temperature ([2]; 90 min after administration) | antipyretic percentage (%) ([2]; 90 min after administration) | Body temperature ([2]; 120 min after administration) | antipyretic percentage (%) ([2]; 120 min after administration) | Body temperature ([2]; 180 min after administration) | antipyretic percentage (%) ([2]; 180 min after administration) | Body temperature ([2]; 240 min after administration) | antipyretic percentage (%) ([2]; 240 min after administration) | antiviral effective rate (ER %) [3] | Body temperature ([4]; 1 h after administration) | antipyretic percentage (%) ([4]; 1 h after administration) | Body temperature ([4]; 2 h after administration) | antipyretic percentage (%) ([4]; 2 h after administration) | Body temperature ([4]; 3 h after administration) | also measured
1 | COc1ccc([C@H]2OCC3C2CO[C@H]3c2ccc(O[C@@H]3OC(CO)[C@@H](O)[C@H](O)C3O)c(OC)c2)cc1OC (some centres unmarked) [phillyrin] | 1.335 ± 0.062 | 16.10 | 40.83 ± 0.26 °C | −0.37 ± 0.15% | 40.58 ± 0.21 °C | −0.61 ± 0.12% | 40.43 ± 0.22 °C | −0.97 ± 0.27% | 40.37 ± 0.27 °C | −1.13 ± 0.14 % | 40.16 ± 0.23 °C | −1.65 ± 0.12 % | 39.92 ± 0.25 °C | −2.22 ± 0.11 % | 80.40** % | 39.13 ± 0.52 °C | −0.60 ± 0.39% | 38.77 ± 0.42 °C | −0.92 ± 0.93 % | 38.63 ± 0.40 °C | antipyretic percentage (%) ([4]; 3 h after administration): −1.29 ± 1.18 %; Body temperature ([4]; 4 h after administration): 38.46 ± 0.31 °C; antipyretic percentage (%) ([4]; 4 h after administration): −1.70 ± 1.23 %; antiviral effective rate (ER %) [5]: 75.27** %; Swelling percentage (%) [6, 9]: 12.9 ± 8.41%; Swelling percentage (%) [6, 10]: 19.9 ± 9.55%; Swelling percentage (%) [6, 11]: 21.8 ± 11.8 %; Swelling percentage (%) [6, 12]: 28.9 ± 14.0 %; Swelling percentage (%) [6, 13]: 30.8 ± 15.4 %; Swelling percentage (%) [6, 14]: 29.9 ± 11.1 %; Swelling percentage (%) [6, 15]: 33.5 ± 10.0 %; Swelling percentage (%) [6, 16]: 32.2 ± 11.9 %; antiviral effective rate (ER %) [7]: 84.85** %; antiviral effective rate (ER %) [8]: 85.00** %
2 | COc1cc([C@H]2OC[C@H]3[C@@H]2CO[C@H]3c2ccc(OC)c(OC)c2)ccc1O [Phillygeninin, phillygeninin] | 1.357 ± 0.050 | 14.69 | 41.06 ± 0.26 °C | −0.10 ± 0.11% | 40.86 ± 0.21 °C | −0.49 ± 0.10% | 40.74 ± 0.22 °C | −0.77 ± 0.22% | 40.65 ± 0.27 °C | −1.00 ± 0.18 % | 40.49 ± 0.23 °C | −1.39 ± 0.17 % | 40.30 ± 0.25 °C | −1.85 ± 0.15 % | 80.88** % | 39.31 ± 0.48 °C | −0.33 ± 0.41% | 39.04 ± 0.45 °C | −0.69 ± 0.93 % | 38.91 ± 0.40 °C | antipyretic percentage (%) ([4]; 3 h after administration): −1.03 ± 1.18 %; Body temperature ([4]; 4 h after administration): 38.70 ± 0.31 °C; antipyretic percentage (%) ([4]; 4 h after administration): −1.55 ± 1.23 %; antiviral effective rate (ER %) [5]: 50.89%; Swelling percentage (%) [6, 9]: 14.9 ± 6.13%; Swelling percentage (%) [6, 10]: 21.9 ± 9.72%; Swelling percentage (%) [6, 11]: 27.1 ± 13.5%; Swelling percentage (%) [6, 12]: 30.7 ± 10.2 %; Swelling percentage (%) [6, 13]: 33.8 ± 12.1 %; Swelling percentage (%) [6, 14]: 31.0 ± 11.3 %; Swelling percentage (%) [6, 15]: 35.8 ± 13.5 %; Swelling percentage (%) [6, 16]: 36.4 ± 10.2%; antiviral effective rate (ER %) [7]: 75.86** %; antiviral effective rate (ER %) [8]: 84.30** %

Source: patent publication US10881679B2, “Application of a phillyrin/phillygeninin composition in preparing a medicine or health care product for alleviating or/and treating viral diseases, and medicine or health care product for treating viral diseases” (priority 2014, dated 2021)
